Here are results for 24 compounds from ChEMBL document CHEMBL3301472, “MMV Malaria Box HIV and cytotoxicity screening”.

As usually defined, the inhibition is the change of the read-out against control, counted positive when it falls.

The nature of data set [1]: MMV: MTT Cytotoxicity Assay Day 3 pi, U87-CD4-CCR5 cells, % cell death @ 5mM compound. In kind it is toxicity, cell-based. The conditions noted are these: human, u87-cd4-ccr5, 5000 µM.
Data set [2] in a line: MMV: MTT Cytotoxicity Assay Day 3 pi, U87-CD4-CXCR4 cells, % cell death @ 5mM compound. The conditions noted are these: human, u87-cd4-cxcr4, 5000 µM. It counts as toxicity, cell-based.
Data set [3] has as its system Human immunodeficiency virus 1. In words: MMV: HIV NL4-3 CXCR4-tropic replication-competent virus, virus & compound washed out Day 1 pi, P24 ELISA Day 7 pi, U87-CD4-CXCR4, % inhibition at 5 mM compound. It counts as functional. Details: dose or concentration left out as unconfirmed. The note with it: Human immunodeficiency virus 1, NL4-3, U87.CD4.CXCR4.
The nature of data set [4]: MMV: MTT Cytotoxicity Assay Day 7 pi of Assay #6 (compound washed out Day 1 pi), U87-CD4-CCR5 cells, % cell death @ 5mM compound. The conditions noted are these: human, u87-cd4-ccr5, 5000 µM. In kind it is toxicity, cell-based.
Data set [5] is described as follows: MMV: MTT Cytotoxicity Assay Day 7 pi of Assay #7 (compound washed out Day 1 pi), U87-CD4-CXCR4 cells, % cell death @ 5mM compound. It counts as toxicity, cell-based. The conditions noted are these: human, u87-cd4-cxcr4, 5000 µM.
Data set [6] in a line: MMV: MTT Cytotoxicity Assay Day 7 pi of Assay #10 (NO washout), U87-CD4-CCR5 cells, % cell death @ 5mM compound. In kind it is toxicity, cell-based. The note with it: human, u87-cd4-ccr5, 5000 µM.
Data set [7] can be described thus: MMV: MTT Cytotoxicity Assay Day 7 pi of Assay #11 (NO washout), U87-CD4-CXCR4 cells, % cell death @ 5mM compound. The note with it: human, u87-cd4-cxcr4, 5000 µM. In kind it is toxicity, cell-based.
Data set [8] concerns Human immunodeficiency virus 1. In words: MMV: HIV CXCR4-tropic env HxB2 pseudovirus assay produces luciferase signal in lieu of replicating viral particles Day 3 pi, U87-CD4-CXCR4, % inhibition at 5 mM compound. It counts as functional. The arrangement: dose or concentration left out as unconfirmed. The note with it: Human immunodeficiency virus 1, HxB2, U87.CD4.CXCR4, 72 h.

Data set [9] concerns Human immunodeficiency virus 1. Description: MMV: HIV JRFL CCR5-tropic replication-competent virus, virus & compound washed out Day 1 pi, P24 ELISA Day 7 pi, U87-CD4-CCR5, % inhibition at 5 mM compound. In kind it is functional. The conditions noted are these: Human immunodeficiency virus 1, JR-FL. Details: dose or concentration left out as unconfirmed.
The test system of data set [10] is Human immunodeficiency virus 1. In words: MMV: HIV CXCR4-tropic env NL4-3 pseudovirus assay produces luciferase signal in lieu of replicating viral particles Day 3 pi, U87-CD4-CXCR4, % inhibition at 5 mM compound. In kind it is functional. Details: dose or concentration left out as unconfirmed. The note with it: Human immunodeficiency virus 1, NL4-3, U87.CD4.CXCR4, 72 h.

For `O=C(Nc1nc(-c2ccccn2)cs1)c1ccccc1Br`, the “% Cell Death” value in [1] is -1; in [2], 28; in [4], -13; in data set [5], -6; in data set [6] it was 118; in [7], 85. Besides, the inhibition in [3] was determined as 4%.

For the compound `CC(C)(C)c1ccc(C(=O)Nc2c3c(nn2-c2cccc(Cl)c2)CSC3)cc1`, the “% Cell Death” value in data set [1] is 7; in data set [2], -37; in [4] it was 2; in data set [5], -2; in [6] it was 7; in data set [7], 1. Moreover, in data set [3], the inhibition amounted to 7%.

As to `C=CCc1c(C)nc2ccccc2c1O`, the “% Cell Death” value in data set [1] is given as 4; in data set [2], 36; in data set [4], -8; in data set [5], 38; in [6], 109; in data set [7], 50. In [3], the inhibition was 4%.

Regarding `O=C(CCc1ccco1)NC1CCN(CC2(c3ccc(Cl)cc3)CCC2)CC1`, the “% Cell Death” value in data set [1] is 18; in data set [2] it was 38; in data set [4], 2; in data set [5], 24; in data set [6], 109; in [7], 97. Besides, the inhibition in data set [3] came to 1%.

Consider `COc1ccc(C(=O)Nc2ccc3nc(N4CCCCC4)cc(C)c3c2)cc1OC`, for which the “% Cell Death” value in data set [1] stood at 108; in data set [2], 23; in [4], 78; in data set [5] it was 16; in data set [6], 91; in data set [7], 106. Moreover, the inhibition in data set [3] was found to be 5%.

In the case of `CCOc1cc2c(cc1OCC)C(c1cc(Cl)c(O)c(OCC)c1)NCC2` (stereo unspecified), the “% Cell Death” value in data set [1] is -45; in data set [2], 15; in data set [4], 8; in [5] it was -20; in [6], 21; in data set [7], 38. Also, the inhibition in [3] is 3%.

For `COC(=O)c1ccc(C2C3=C(O)CC(c4ccc(F)cc4)CC3=Nc3ccccc3N2C(=O)c2ccccc2)cc1` (stereo unspecified), the “% Cell Death” value in data set [1] is recorded as -1; in [2], 33; in data set [4], 39; in data set [5], 12; in [6] it was 18; in data set [7], -29. In [3], the inhibition is -1%.

Take `CCCCCCC(O)(c1ccc(F)cc1)C(CN1CCOCC1)c1ccccc1.Cl` (stereo unspecified): the “% Cell Death” value is 13 in [1]; 12 in data set [2]; 3 in [4]; -17 in data set [5]; -2 in data set [6]; -35 in [7]. Further, the inhibition in data set [3] was 8%.

As for `CC(C)(C)c1ccc(C2CC3=Nc4ccccc4N(C(=O)c4ccccc4Cl)C(c4ccc(F)cc4)C3=C(O)C2)cc1` (stereo unspecified), in [8], the inhibition is -1%. Moreover, the “% Cell Death” value in data set [1] was -12; in data set [2], 31; in [4] it was 8; in data set [5], 17; in [6] it was 28; in data set [7], 5.

Turning to `Cc1ccc(C2CC(C(F)(F)F)n3nc(C(=O)N4CCN(C(c5ccccc5)c5ccccc5)CC4)cc3N2)cc1` (stereo unspecified), in [8], the inhibition worked out at 5%. The “% Cell Death” value is recorded as 86 in data set [1]; 64 in [2]; 77 in [4]; 62 in data set [5]; 75 in data set [6]; 58 in data set [7].

On to `O=C(Nc1ccccc1O)c1ccc(Oc2cccc(C(=O)Nc3ccccc3O)c2)cc1`, for which the “% Cell Death” value was 43 in data set [1]; 4 in data set [2]; 17 in data set [4]; -12 in data set [5]; 28 in data set [6]; -20 in [7]. The inhibition in data set [3] is 0%.

Regarding `COc1ccc(-c2nc3cc(Cc4ccc5[nH]c(-c6ccc(OC)cc6)nc5c4)ccc3[nH]2)cc1`, the inhibition in data set [8] turned out to be 1%. Also, the “% Cell Death” value in [1] is -6; in [2], 23; in data set [4], -21; in [5], -21; in data set [6] it was 4; in data set [7], 6.

Regarding `c1ccc(-c2ccc(-c3nc4ccccc4[nH]3)cc2)cc1`, the “% Cell Death” value in data set [1] was 12; in data set [2] it was 6; in data set [4] it was 16; in [5] it was -19; in data set [6], 11; in [7] it was 70. Moreover, in [3], the inhibition is -1%.

Regarding `O=[N+]([O-])c1ccc(C=NNc2nc3ccccc3[nH]2)cc1`, the “% Cell Death” value in data set [1] was 32; in data set [2], 6; in data set [4] it was 28; in data set [5], -15; in data set [6] it was 38; in [7], 22. Further, in data set [3], the inhibition amounted to 0%.

For the compound `OC(CNC1CCCCC1)Cn1c2ccc(I)cc2c2cc(I)ccc21` (stereo unspecified), the inhibition in [8] and in data set [9] was 3% each time. Also, the “% Cell Death” value in data set [1] is given as 27; in [2], 25; in data set [4], 3; in data set [5], -9; in data set [6] it was -2; in data set [7], 26.

For the compound `CCOc1ccc(Nc2c3ccccc3nc3ccccc23)cc1.Cl`, the inhibition in data set [10] came out at 2%; in [8], 5%. Also, the “% Cell Death” value in data set [1] is reported as 47; in data set [2] it was 1; in data set [4] it was 34; in [5], 42; in data set [6] it was 43; in [7] it was 95.

Take `CCC1(C)CC(CCNCc2ccccc2O)(c2ccc(C)cc2)CCO1` (stereo unspecified): the inhibition in data set [8] was found to be 0%. The “% Cell Death” value in data set [1] is on record as -22; in data set [2] it was 14; in [4], 9; in [5], 0; in data set [6], 27; in [7], 19.

`O=C(NCc1ccco1)C1CCN(S(=O)(=O)c2ccc(Br)cc2)CC1`: the inhibition in [8] was 8%. Besides, the “% Cell Death” value is on record as 14 in [1]; 32 in data set [2]; 5 in data set [4]; -9 in data set [5]; -12 in [6]; -5 in data set [7].

With `CCOC(=O)c1cnc2ccc(OC)cc2c1NCc1ccccc1`, in data set [8], the inhibition is -2%. Besides, the “% Cell Death” value in [1] is -52; in data set [2] it was 36; in data set [4], -10; in data set [5], 12; in [6], -9; in data set [7], 46.

As to `COc1cc(C(=O)Nc2nc3c(cc4c5c(cccc53)CC4)s2)cc(OC)c1OC`, the inhibition in data set [8] was 0%. Further, the “% Cell Death” value in [1] was 105; in data set [2], 56; in data set [4], 42; in data set [5], 68; in [6], 136; in data set [7], 110.

For the compound `CCOC(=O)C1=C(C)N=c2sc(=Cc3ccccc3O)c(=O)n2C1c1ccc(OC)c2ccccc12` (stereo unspecified), in data set [8], the inhibition is -1%. For the same compound, the “% Cell Death” value is given as 105 in data set [1]; 42 in [2]; 40 in data set [4]; 66 in data set [5]; 90 in [6]; 113 in data set [7].

In the case of `CC(C)(C)CC(C)(C)NCC(O)COc1ccc2c(c1)CCC2.Cl` (stereo unspecified), the inhibition in data set [10] is -1%; in [8], 4%. Further, the “% Cell Death” value in data set [1] is on record as -4; in data set [2] it was 10; in data set [4], 2; in [5] it was -11; in [6], -10; in data set [7] it was 7.

Take `Cc1cc(NCCN2CCCCC2)c2ccc3ccccc3c2n1`: the inhibition in data set [8] was 1%. Also, the “% Cell Death” value in data set [1] was determined as 64; in data set [2], 34; in [4], 30; in data set [5], 16; in data set [6] it was 31; in [7], 5.

For the compound `COc1ccc(/C=C2/SC(=Nc3ccccc3)NC2=O)cc1`, the inhibition in [8] was 3%. Further, the “% Cell Death” value in [1] came to 54; in data set [2], 28; in [4], 93; in data set [5], 77; in data set [6], 115; in data set [7], 66.
